In brackets after ≈: the same amount, converted by molar mass. Where two headings read alike, the source gives them in different places.

One data set concerns P-388 tumor. The conditions noted are these: cited from earlier work; for life-span of mice bearing i.p. implanted P-388 tumor: control animals 10 days.
Another data set concerns L-1210 leukemia. The conditions noted are these: 30 to 40 mg/kg dosage; cited from earlier work.
A further data set relates to S. aureus (Smith). The experiment in a line: Autotiter in vitro antibacterial test, S. aureus (Smith). In kind it is cell-based. The conditions noted are these: Staphylococcus aureus, 18-20 hours at 37° C., read-out: minimal inhibitory concentration (MIC). The procedure: (§1) The antibacterial activity of the compounds of formula I was determined using a modification of the Autotiter® method described by Goss et al. [Applied Microbiology 16 (9), 1414-1416 (1968)] in which a 1,000 mcg./ml. solution of the test compound is prepared. To the first cup of the Autotray® is added 0.1 ml. of the test solution. Activation of the Autotiter initiates a sequence of operations by which 0.05 ml. of the test compound solution is withdrawn from the cup by a Microtiter® transfer loop and diluted in 0.05 ml. of sterile water. Following this operation, 0.05 ml. of inoculated double-strength semisynthetic medium (glucose) is added automatically to each cup. The overall operation results in final drug concentrations ranging from 500 to 0.06 mcg./ml. in twofold decrements. The Autotray is incubated for 18-20 hours at 37° C. at which time the trays are examined visually for growth as evidenced by turbidity, and the concentration of the last sample in the series showing no growth (or no turbidity) is recorded as the minimal inhibitory concentration (MIC) in mcg./ml. The compounds were thus tested as solutions and found active in the range of 7.8 to 125 mcg./ml. (MIC) against one or more of various gram positive and gram negative bacteria including Staphylococcus aureus, Proteus mirabilis, Escherichia coli, Klebsiella pneumoniae and Streptococcus pyogenes.

The next data set concerns E. coli (Vogel). The experiment in a line: Autotiter in vitro antibacterial test, E. coli (Vogel). In kind it is cell-based. The conditions noted are these: Escherichia coli, 18-20 hours at 37° C., read-out: minimal inhibitory concentration (MIC). The procedure: as §1
Another data set deals with Kleb. pneumoniae. The experiment in a line: Autotiter in vitro antibacterial test, Kleb. pneumoniae. In kind it is cell-based. The conditions noted are these: Klebsiella pneumoniae, 18-20 hours at 37° C., read-out: minimal inhibitory concentration (MIC). The procedure: as §1
Another data set has as its system Prot. mirabilis. The experiment in a line: Autotiter in vitro antibacterial test, Prot. mirabilis. The conditions noted are these: Proteus mirabilis, 18-20 hours at 37° C., read-out: minimal inhibitory concentration (MIC). In kind it is cell-based. The procedure:
as §1

The test system of the next data set is E. coli (1100/B22). The experiment in a line: Autotiter in vitro antibacterial test, E. coli (1100/B22). In kind it is cell-based. As to conditions: Escherichia coli, 18-20 hours at 37° C., read-out: minimal inhibitory concentration (MIC). The procedure: as §1
In the next data set the test system is Strep. pyogens. The experiment in a line: Autotiter in vitro antibacterial test, Strep. pyogens. In kind it is cell-based. The conditions noted are these: Streptococcus pyogenes, 18-20 hours at 37° C., read-out: minimal inhibitory concentration (MIC). The procedure:
as §1

The conditions of data set [1]: cited from earlier work.

With `CN(C)N=Nc1ccnc2c(Br)cccc12` [Example 8-bromo], in the data set on P-388 tumor (up to 40 mg/kg), the “activity against P-388 tumor (in words)” value is “inactive”. Besides, in the data set on L-1210 leukemia, the “activity against mouse L-1210 leukemia (in words)” value was “active” and the “increase of life-span, mouse L-1210 leukemia” value (from here on “increase of life-span”) was 65%.

For the compound `CCCn1cc(C(=O)O)c(=O)c2ccc(N=NN(CC)CC)cc21` [Example E-4, 7-(3,3Diethyl-1-triazenyl)-1,4-dihydro-4-oxo-1-n-propyl-3-quinolinecarboxylic Acid], the MIC with S. aureus (Smith) was 62.5 µg/mL (≈ 189 µM); in the data set with E. coli (Vogel), > 500 µg/mL; in the data set with Kleb. pneumoniae, > 500 µg/mL; in the data set on Prot. mirabilis, > 500 µg/mL; in the data set on E. coli (1100/B22) it was > 500 µg/mL; in the data set with Strep. pyogens, 62.5 µg/mL (≈ 189 µM).

On to `CN(C)N=Nc1ccnc2ccc(Cl)cc12` [Example 6-chloro, 6-chloro-4-(3,3-dimethyl-1-triazeno)quinoline], for which, in the data set with P-388 tumor (i.p. dosage of 30 mg/kg), the “activity against P-388 tumor (in words)” value is reported as “active” and the “life-span of mice bearing i.p. implanted P-388 tumor” value was 16 to 18 days.

`CN(C)N=Nc1ccnc2cc(Cl)ccc12` [Example 7-chloro, 7-chloro-4-(3,3-dimethyl-1-triazeno)quinoline]: in the data set with P-388 tumor (i.p. dosage of 30 mg/kg), the “activity against P-388 tumor (in words)” value is given as “active” and the “life-span of mice bearing i.p. implanted P-388 tumor” value was 16 to 18 days.

With `CCCn1cc(C(=O)O)c(=O)c2ccc(N=NN(C)C)cc21` [Example E-3, 1,4-Dihydro-7-(3,3-dimethyl-1-triazenyl)-4-oxo-1-n-propyl-3-quinolinecarboxylic Acid], the MIC with S. aureus (Smith) was > 62.5 µg/mL; in the data set on E. coli (Vogel), > 62.5 µg/mL; in the data set with Kleb. pneumoniae, > 125 µg/mL; in the data set with Prot. mirabilis, > 125 µg/mL; with E. coli (1100/B22), > 62.5 µg/mL; in the data set on Strep. pyogens, 31.3 µg/mL (≈ 104 µM).

As to `CN(C)N=Nc1ccnc2ccc(I)cc12` [Example 6-iodo], the “activity against P-388 tumor (in words)” value in the data set with P-388 tumor (up to 40 mg/kg) was “inactive”.

`CN(C)N=Nc1cnc2ccccc2c1` [3,3-dimethyl-1-(3'-quinolinyl)triazene]: the “stability of crude product on drying” value in [1] (allowed to dry while crude) is given as “decomposes in a puff of smoke”. Further, the “stability of crude product” value in data set [1] (crude product) is recorded as “Crude product is very unstable”. Also, the stability during microanalysis entry in data set [1] (during microanalysis) is given as “Explodes during microanalysis”. For the same compound, the “stability of purified material on storage” value in data set [1] (purified material, on storage) is “darkens rapidly, but less dramatically, on storage”.

`CN(C)N=Nc1ccnc2cc(Br)ccc12` [Example 7-bromo]: the “activity against P-388 tumor (in words)” value in the data set on P-388 tumor (up to 40 mg/kg) was “inactive”.

As to `CN(C)N=Nc1ccc2c(=O)c(C(=O)O)cn(C)c2c1` [Example E-2, 1,4-Dihydro-1-methyl-7-(3,3-dimethyl-1-triazenyl)-4-oxo-3-quinolinecarboxylic Acid], the MIC in the data set with S. aureus (Smith) was 62.5 µg/mL (≈ 228 µM); in the data set on E. coli (Vogel) it was 125 µg/mL (≈ 456 µM); with Kleb. pneumoniae it was > 125 µg/mL; in the data set on Prot. mirabilis, > 125 µg/mL; with E. coli (1100/B22), > 250 µg/mL; with Strep. pyogens it was 62.5 µg/mL (≈ 228 µM).

For `CCn1cc(C(=O)O)c(=O)c2ccc(N=NN(C)C)cc21` [Example E-1, 1-Ethyl-1,4-dihydro-7-(3,3-dimethyl-1-triazenyl)-4-oxo-3-quinolinecarboxylic Acid], the MIC was found to be 15.6 µg/mL (≈ 54.1 µM) in the data set on S. aureus (Smith), 7.8 µg/mL (≈ 27.1 µM) with E. coli (Vogel), 500 µg/mL (≈ 1730 µM) in the data set on Kleb. pneumoniae and 125 µg/mL (≈ 434 µM) in the data set with Strep. pyogens.

Take `CN(C)N=Nc1ccnc2ccc(Br)cc12` [Example 6-bromo]: the “activity against P-388 tumor (in words)” value in the data set on P-388 tumor (up to 40 mg/kg) was “inactive”. In addition, in the data set on L-1210 leukemia, the “activity against mouse L-1210 leukemia (in words)” value is “active” and the “increase of life-span” value is given as 50%.

`CN(C)N=Nc1ccnc2c(Cl)cccc12` [Example 8-chloro, 8-chloro-4-(3,3-dimethyl-1-triazeno)quinoline]: in the data set with P-388 tumor (i.p. dosage of 30 mg/kg), the “activity against P-388 tumor (in words)” value is “active” and the “life-span of mice bearing i.p. implanted P-388 tumor” value was 16 to 18 days. In the data set on L-1210 leukemia, the “activity against mouse L-1210 leukemia (in words)” value was “active” and the “increase of life-span” value was 65%.

As for `CCn1cc(C(=O)O)c(=O)c2ccc(N=NN3CCN(C)CC3)cc21` [Example E-5, 1-Ethyl-1,4-dihydro-7-[(4-methyl-1-piperazinyl)azo]-4-oxo-3-quinolinecarboxylic Acid], the MIC in the data set on S. aureus (Smith) turned out to be 31.3 µg/mL (≈ 91.2 µM); in the data set with E. coli (Vogel) it was 15.6 µg/mL (≈ 45.4 µM); in the data set with Kleb. pneumoniae, 62.5 µg/mL (≈ 182 µM); with Prot. mirabilis, 125 µg/mL (≈ 364 µM); with Strep. pyogens, 125 µg/mL (≈ 364 µM).

Values taken from patent US4137227A, “1-Alkyl-1,4-dihydro-4-oxo-7-triazenyl-3-quinolinecarboxylic acids” (Sterling Drug Inc., priority 1977, dated 1979).
